PubChem BioAssay (NCI)
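48-hour exposure; five concentrations; linearly interpolated endpoints. GI50 = concentration required for 50% inhibition of growth. TGI marks complete inhibition of growth.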

Columns and labels:
Experiment in all cases: growth of human tumour cells (NCI), 48 h
HL-60(TB) leukemia = test system: HL-60(TB) leukemia
CCRF-CEM leukemia = test system: CCRF-CEM leukemia
EKVX NSCLC = test system: EKVX NSCLC
COLO 205 colon = test system: COLO 205 colon
IGROV1 ovarian = test system: IGROV1 ovarian
NCI-H522 lung = test system: NCI-H522 lung
PC-3 prostate = test system: PC-3 prostate
M14 melanoma = test system: M14 melanoma
MOLT-4 leukemia = test system: MOLT-4 leukemia
NCI-H226 lung = test system: NCI-H226 lung

Row | Structure (SMILES) | GI50 (HL-60(TB) leukemia) [µM] | TGI (HL-60(TB) leukemia) [µM] | GI50 (CCRF-CEM leukemia) [µM] | TGI (CCRF-CEM leukemia) [µM] | GI50 (EKVX NSCLC) [µM] | TGI (EKVX NSCLC) [µM] | GI50 (COLO 205 colon) [µM] | TGI (COLO 205 colon) [µM] | GI50 (IGROV1 ovarian) [µM] | TGI (IGROV1 ovarian) [µM] | GI50 (NCI-H522 lung) [µM] | TGI (NCI-H522 lung) [µM] | GI50 (PC-3 prostate) [µM] | TGI (PC-3 prostate) [µM] | GI50 (M14 melanoma) [µM] | TGI (M14 melanoma) [µM] | GI50 (MOLT-4 leukemia) [µM] | TGI (MOLT-4 leukemia) [µM] | GI50 (NCI-H226 lung) [µM] | TGI (NCI-H226 lung) [µM]
1 | COc1ccc2cc(-c3cnc4nonc4n3)ccc2c1 | 0.803 | 9.03 | 1.62 | > 100 | 0.83 | > 100 | 3.12 | > 100 | 15.3 | > 100 | 1.29 | > 100 | 2.11 | > 100 | 1.91 | 6.38 | 1.92 | > 100 | 6.43 | > 100
2 | CCC1=C(c2ccc(OC)cc2)C(C)(C)Oc2c1ccc(O)c2CN1CCCC1 | 0.871 | 3.12 | 1.86 | 5.38 | 18.6 | > 100 | 14.9 | 87.4 | 3.84 | 23.9 | 1.97 | 3.96 | 2.58 | 29.3 | 1.65 | 3.39 | 2.18 | 6.53 | 2.45 | 14.7
3 | O=S(=O)(N=C1C(Cl)=C(Cl)C(=NS(=O)(=O)c2ccccc2)C(Cl)=C1Cl)c1ccccc1 | 16.4 | > 100 | 14.8 | 90.9 | 31.5 | > 100 | 23.9 | 88.8 | 18.7 | 40.7 | 11.1 | 29.7 | 24.3 | > 100 | 16.5 | 34.7 | 27 | > 100 | 21.6 | 56.2
4 | COc1cc(-n2ccnc2-c2ccc3ccccc3c2)cc(OC)c1OC | 0.0232 | > 37.6 | 0.136 | > 100 | 0.481 | > 72.4 | < 0.0282 | 0.785 | 0.259 | > 51.2 | < 0.0175 | 13.2 | 0.03 | > 85.8 | 0.0376 | 1.02 | 0.284 | > 50.9 | 5.7 | > 53.7
5 | NCCCCC(NC(=O)C(N)CCCN=C(N)N)C(=O)NC(CCCCN)C(=O)NC(CCCN=C(N)N)C(=O)NC(CCCN=C(N)N)C(=O)NC(CCC(N)=O)C(=O)NC(CCCN=C(N)N)C(=O)NC(CCCN=C(N)N)C(=O)NC(CCCN=C(N)N)C(=O)NCC(=O)NCC(=O)O (stereo not drawn) | > 50 | > 50 | 1.53 | 8.52 | > 50 | > 50 | > 50 | > 50 | > 50 | > 50 | > 50 | > 50 | > 50 | > 50 | > 50 | > 50 | > 50 | > 50 | > 50 | > 50
6 | CCSC[C@@H]1C[C@](O)(c2ccc(Cl)cc2)[C@@H](c2ccc(Cl)cc2)O1 | 15.2 | 36 | 20.5 | 59.4 | 17.3 | 40.7 | 14.4 | 28.7 | 15.3 | 32.3 | 15.5 | 31.4 | 20 | 39.1 | 15.3 | 29.6 | 17.7 | 43.6 | 17.8 | 37.3
7 | CCCc1nn(C)c2c(=O)[nH]c(-c3cc(S(=O)(=O)N4CCN(C)CC4)ccc3OCC)nc12 | > 100 | > 100 | > 100 | > 100 | > 100 | > 100 | > 100 | > 100 | 91.4 | > 100 | > 100 | > 100 | > 100 | > 100 | > 100 | > 100 | > 100 | > 100 | > 100 | > 100
8 | COc1ccc2c(c1)c(-c1nc(-c3cn(C)c4ccncc34)cs1)cn2C | 1.96 | 4.49 | 2.15 | 6.05 | 1.77 | 3.56 |  |  | 1.92 | 3.65 | 1.77 | 3.26 | 1.89 | 4.79 | 1.7 | 3.29 |  |  | 1.83 | 3.75
9 | CC1=CCC2CC1C(C(=O)c1c[nH]c3ccccc13)=NC2(C)C (stereo not drawn) |  | > 100 |  | > 100 |  | > 100 |  | > 100 |  | > 100 |  | > 100 |  | > 100 |  | > 100 |  | > 100 |  | > 100
10 | Cc1ccc2c(C(C[N+](=O)[O-])c3ccccc3)c(-c3ccccc3)[nH]c2c1 (stereo not drawn) | 22.6 | 57.2 | 25.2 | > 95 | 75.9 | > 95 | 21.8 | > 95 | 13.4 | > 95 | 3.17 | > 95 | 20.9 | > 95 | 16 | > 95 | 34 | > 95 | 62.4 | > 95
11 | COc1cc2nc(Nc3cccc(Cl)c3)nc(N)c2cc1OC | 10.7 | 39.4 | 2.36 | 7.3 | 12.9 | 27 | 1.68 | 3.39 | 11 | 25.4 | 8.44 | 26.7 | 6.82 | 21 | 1.87 | 3.73 | 2.78 | 11.4 | 16 | 29.5
12 | OC1CC2CCC(C1)N2CCCN1c2ccccc2Sc2ccc(Cl)cc21 (stereo not drawn) |  | 6.37 |  | 4.23 |  | 10.1 |  | 3.35 |  | 5.01 |  | 4.19 |  | 4.8 |  | 3.56 |  | 5.8 |  | 15.2
13 | CC1SC(c2ccccc2Cl)N(NC(=O)C(O)c2ccccc2)C1=O (stereo not drawn) | 82.4 | > 100 | > 100 | > 100 | > 100 | > 100 |  |  | 73.1 | > 100 | 54.4 | > 100 | 45.6 | > 100 | 94.3 | > 100 | 50.4 | > 100 | > 100 | > 100
14 | COC[C@H](NC(=O)c1cnc(C)s1)C(=O)N[C@@H](COC)C(=O)N[C@@H](Cc1ccccc1)C(=O)[C@@]1(C)CO1 | 35 | > 100 | 21.3 | > 100 | 44.4 | > 100 | 37.4 | > 100 | 38.8 | > 100 | 12.8 | 63 | 50.1 | > 100 | 24.3 | > 69.8 | 23.8 | > 100 | 17.4 | 46.6
15 | CCOC(=O)C(=Cc1ccc(C#N)cc1)C(=O)OCC | 1.88 | 5.48 | 3 | 9.32 | 4.83 | 17.6 | 1.87 | 3.83 | 2.61 | 7.96 | 1.48 | 3.1 | 2.28 | 4.9 | 1.89 | 4.26 | 3.09 | 11.5 | 2.51 | 6.33
16 | Cc1ccc(OP(=O)(Oc2ccc(C)cc2)N2C=Cc3ccccc3C2C#N)cc1 (stereo not drawn) |  | > 100 |  | > 100 |  | > 100 |  | > 100 |  | > 100 |  | > 100 |  | > 100 |  | > 100 |  | > 100 |  | > 100
17 | O=C(O)c1cccc(S(=O)(=O)NCCO)c1 |  | > 100 |  | > 100 |  | > 100 |  | > 100 |  | > 100 |  | > 100 |  | > 100 |  | > 100 |  | > 100 |  | > 100
18 | Fc1cccc(COc2ccc(Nc3ncnc4onc(-c5ccccc5)c34)cc2)c1 | 0.0955 | > 100 | 0.287 | > 50.4 | 1.61 | > 100 | 0.202 | 0.787 | 0.249 | > 100 | 0.138 | 0.905 | 0.262 | > 100 | 0.179 | > 100 | 0.27 | > 100 | 3.06 | > 100
19 | O=C1c2ccccc2C(=O)N1CCc1ncc(-c2ccccc2)[nH]1 |  | > 100 |  | > 100 |  | > 100 |  | > 100 |  | > 100 |  | > 100 |  | > 100 |  | > 100 |  | > 100 |  | > 100
20 | O=C(c1c(F)c(F)c(F)c(F)c1F)c1c(F)c(F)c(F)c(F)c1F |  | > 100 |  | 1.15 |  | 4.06 |  | 3.28 |  | 2.64 |  | 0.392 |  | 3.39 |  | 5.97 |  | 0.764 |  | 8.96
21 | COc1ccccc1C#Cc1ccccc1C#Cc1ccc(OCCCCCCOc2ccccc2C#Cc2ccccc2C#Cc2ccccc2OC)cc1 | > 100 | > 100 | > 100 | > 100 | > 100 | > 100 | > 100 | > 100 | > 100 | > 100 | > 100 | > 100 | > 100 | > 100 | > 100 | > 100 | > 100 | > 100 | > 100 | > 100
22 | Cc1ccc(CNc2ccc3nc(CCC4CCCCC4)[nH]c3c2)cc1 | 1.98 | 4.62 | 3.29 | > 100 | 2.12 | 6.47 | 1.88 | 3.66 | 2.28 | 10.3 | 1.99 | 5.13 | 2.39 | 8.61 | 1.91 | 3.9 | 2.76 | 9.71 | 1.77 | 3.92
23 | CC(=O)O.CN1[CH-]N(Cc2ccc(C#N)cc2)c2ccccc21.[Ag+] | 20.3 | 45.9 | 22.2 | 61.1 | > 100 | > 100 | 10.3 | 31.5 | 20.9 | 46.7 | 14.5 | 82.4 | 13.5 | 28.5 | 16.9 | 32.7 | 26.1 | 68.2 | 16.7 | 50.9
24 | Cc1cc(OCc2nnc3n2S(=O)(=O)c2ccccc2N3C)ccc1Cl |  | 55.1 |  | 38 |  | > 100 |  | > 100 |  | > 100 |  | 45.6 |  | > 100 |  | > 100 |  | > 100 |  | > 100
25 | C(=N\Nc1ncc(-c2cc3cc4c(cc3o2)OCO4)s1)/c1ccco1 | 2.7 | 7.59 | 0.551 | 16.2 | 2.25 | 10.9 |  |  | 2.6 | 8.09 | 0.625 | 2.97 | 1.79 | 12.4 | 2.9 | 11.6 | 0.946 | 14.5 | 3.67 | 18.9
26 | CN(C)c1ccc(/C=N/NC(N)=S)nc1 | 1.8 | 37.9 | 2.82 | 21.8 | 3.09 | > 100 | 4.27 | > 100 |  |  | 1.2 | > 100 | 3.76 | > 100 | 2.28 | 5.23 | 2.92 | 95.1 | 3.54 | 52.7
27 | COc1ccc(-c2ncnc3c2ncn3CC#CCCl)cc1 | 3.06 | 17.6 | 3.84 | 42.7 | 12.8 | 29.6 | 3.51 | 13.7 |  |  | 3.09 | 14 | 6.82 | 24.7 | 4.55 | 17.4 | 2.68 | > 100 | 4.45 | 26.2
